The nature of series [1]: in vitro. As to conditions: human, plasma.
Series [2] is described as follows: in vitro. Conditions: SD, HW or BN, rat, plasma.
Series [3] in a line: in vitro. As to conditions: Beagle, dog, plasma.
Series [4] in a line: physchem. Conditions: octan-1-ol/water.
The nature of series [5]: physchem. Conditions: pH 7.4 buffer.

The term fraction unbound denotes free concentration divided by total concentration. Low readings indicate little free substance, high ones much free substance. As usually defined, the logD is lipophilicity at a set pH, counting ionised and neutral species. Read a low logD as a more hydrophilic compound. By thermodynamic solubility is commonly meant the concentration in solution at equilibrium with solid.

The structures appear in SMILES notation. Converted amounts (≈) assume the structure as drawn.

In the case of `O=C(NC12CC3CC(CC(C3)C1)C2)OCCNC1CCCCC1`, the fraction unbound at 5 h in series [1] (PPB) was 0.11; in series [2], 0.129; in series [3], 0.16.

On to `Cc1cc(Nc2nc(O[C@@H](C)c3ncc(F)cn3)ncc2Cl)[nH]n1`, for which the logD in series [4] (pH 7.4, LogD7.4) was 1.82. Besides, the values for the free fraction (fraction unbound) at 5 h in series [1] (PPB), in series [2] and in series [3] were 0.249, 0.339 and 0.489, respectively.

`CCOc1cc2nnc(C(N)=O)c(Nc3ccc(C)cc3F)c2cc1N1CCN(C)CC1`: the fraction unbound at 5 h in series [1] (PPB) was 0.016; in series [2], 0.0633; in series [3], 0.062.

For `CC(C)(C)OC(=O)NC[C@H]1CC[C@H](CNC(=O)c2cc(N3CCC(CCO)CC3)nc3ccccc23)CC1`, the fraction unbound at 5 h in series [1] (PPB) was 0.007; in series [2] it was 0.0099; in series [3], 0.0084.

With `O=c1cc(N2CCOCC2)nc2n(Cc3cccc4ccccc34)ccn12`, the logD in series [4] (pH 7.4, LogD7.4) was determined as 3.3. The unbound share (fraction unbound) at 5 h is 0.0307 in series [1] (PPB), 0.0477 in series [2] and 0.0676 in series [3].

For the compound `Cc1cc(C(C)Nc2ccccc2)c2nc(N3CCOCC3)cc(=O)n2c1` (stereo not given), the figures for the fraction unbound at 5 h in series [1] (PPB), in series [2] and in series [3] were 0.0532, 0.0467 and 0.0606, respectively.

`N[C@H]1CCN(c2c(Cl)cccc2/C=C2\SC(=O)NC2=O)C1`: the pH-dependent lipophilicity (logD) in series [4] (pH 7.4, LogD7.4) was 1.89. Moreover, the unbound share (fraction unbound) at 5 h in series [1] (PPB) was 0.0234; in series [2], 0.0467; in series [3], 0.0581.

In the case of `CCOc1noc2cc(OCCC3CCN(c4ccc(C)nn4)CC3)ccc12`, the fraction unbound at 5 h is 0.0014 in series [1] (PPB), 0.0015 in series [2] and 0.0031 in series [3].

As for `Cc1ccc(NC(=O)c2cccc(C(C)(C)C#N)c2)cc1Nc1ccc2ncn(C)c(=O)c2c1`, the fraction unbound at 5 h in series [1] (PPB) was 0.0039; in series [2] it was 0.5; in series [3], 0.004.

Take `CC(C)Oc1cc(-n2cnc3ccc(N[C@@H](CO)c4ccc(F)cn4)nc32)n[nH]1`: the pH-dependent lipophilicity (logD) in series [4] (pH 7.4, LogD7.4) came to 2.79. Further, the fraction unbound at 5 h was 0.0818 in series [1] (PPB), 0.186 in series [2] and 0.304 in series [3].

`CC(C)Oc1cc(Nc2nc3c(cc2F)ncn3[C@@H](CO)c2ccc(F)cn2)n[nH]1`: in series [4] (pH 7.4, LogD7.4), the logD was 2.97. For the same compound, the unbound share (fraction unbound) at 5 h in series [1] (PPB) was 0.051; in series [2], 0.119; in series [3], 0.249.

`N#Cc1ccccc1C[C@@H](C(=O)O)N1CCC(CN2CCC(Oc3ccc(Cl)c(Cl)c3)CC2)CC1` displayed a thermodynamic solubility in series [5] of 288 µM (≈ 149 µg/mL). In addition, the fraction unbound at 5 h in series [2] was 0.224; in series [3] it was 0.0661.

The compound `N#Cc1ccc2ccc(=O)n(CCN3CC[C@H](NCc4cc5c(cn4)OCCO5)[C@H](O)C3)c2c1` displayed a logD in series [4] (pH 7.4, LogD7.4) of 0.46. In addition, the fraction unbound at 5 h is 0.734 in series [2] and 0.608 in series [3].

Consider `CO[C@H]1CN(CCn2c(=O)ccc3ccc(C#N)cc32)CC[C@H]1NCc1cc2c(cn1)OCCO2`, for which the logD in series [4] (pH 7.4, LogD7.4) worked out at 0.63. The free fraction (fraction unbound) at 5 h was 0.483 in series [1] (PPB), 0.738 in series [2] and 0.569 in series [3].

On to `C[C@H]1CN(c2cc(N(CCO)Cc3cccc4ccccc34)[nH]c(=O)n2)CCO1`, for which the results for the unbound share (fraction unbound) at 5 h in series [1] (PPB), in series [2] and in series [3] were 0.16, 0.0948 and 0.299, respectively.

In turn, `Cc1cn([C@H]2CCCN([C@@H](C)c3ccc(C(=O)O)c(Oc4cccc(Cl)c4)c3)C2)c(=O)[nH]c1=O` displayed a pH-dependent lipophilicity (logD) in series [4] (pH 7.4, LogD7.4) of -0.26. In addition, the free fraction (fraction unbound) at 5 h in series [1] (PPB) was 0.0229; in series [2], 0.0268; in series [3], 0.0532.

With `CCNC(=O)Nc1nc2cc(-c3cccnc3)cc(-c3ncccc3F)c2[nH]1`, the values for the fraction unbound at 5 h in series [1] (PPB), in series [2] and in series [3] were 0.0136, 0.028 and 0.04, respectively.

On to `C[S+]([O-])Cc1ccc(C(=O)Nc2ccc(OCCOCCO)nc2C(=O)NCC2CCC2)c2ccccc12` (stereo not given), for which the results for the fraction unbound at 5 h in series [1] (PPB), in series [2] and in series [3] were 0.0499, 0.0343 and 0.0581, respectively.

With `CC(C)(C)NC(=O)NCCN1CCCC(NC(=O)c2cc(Cl)cc(Cl)c2)C1` (stereo not given), the unbound share (fraction unbound) at 5 h in series [1] (PPB) was 0.028; in series [2] it was 0.0391; in series [3] it was 0.0633.

For `CC(C)(C)NC(=O)NCCN1CCC(O)(CNC(=O)c2cc(Cl)cc(Cl)c2)CC1`, the fraction unbound at 5 h in series [1] (PPB) was 0.232; in series [2], 0.232; in series [3], 0.36.

Take `O=C(CN1CCN(CCC2CCOCC2)CC1)NC12CC3CC(CC(C3)C1)C2`: the fraction unbound at 5 h is 0.529 in series [1] (PPB), 0.392 in series [2] and 0.431 in series [3].

With `CC(C)(C)S(=O)(=O)CCCN1CCN(CC(=O)NC23CC4CC(CC(C4)C2)C3)CC1`, the fraction unbound at 5 h in series [1] (PPB) is 0.349; in series [2], 0.309; in series [3], 0.289.

With `CC(C)(C)NC(=O)NCCN1CCC(CNC(=O)c2cc(Cl)cc(Cl)c2)CC1`, the values for the fraction unbound at 5 h in series [1] (PPB), in series [2] and in series [3] were 0.11, 0.17 and 0.11, respectively.

With `CC(C)(C)NC(=O)NCCN1CCOC(CNC(=O)c2cc(Cl)cc(Cl)c2)C1` (stereo not given), the fraction unbound at 5 h in series [1] (PPB) is 0.0606; in series [2], 0.0676; in series [3], 0.0818.

For `CC(C)(C)NC(=O)NCCN1CCC(CNC(=O)c2cc(Cl)cc(Cl)c2)C1` (stereo not given), the fraction unbound at 5 h is 0.0968 in series [1] (PPB), 0.139 in series [2] and 0.0909 in series [3].

Consider `COc1ccc2c(C)cc(N[C@H]3CC[C@H](NCc4cn(C)c5ccc(C#N)cc45)C3)nc2c1`, for which the fraction unbound at 5 h was 0.0139 in series [1] (PPB), 0.0146 in series [2] and 0.0209 in series [3].

Regarding `CCOc1cc2ncc(C(N)=O)c(Nc3cccc(Cl)c3F)c2cc1N1CCN(C)CC1`, the fraction unbound at 5 h in series [1] (PPB) is 0.0705; in series [2], 0.134; in series [3] it was 0.204.

Turning to `Cc1cc(Nc2nc(N[C@@H](C)c3ncc(F)cn3)c(C#N)nc2C)n[nH]1`, in series [4] (pH 7.4, LogD7.4), the pH-dependent lipophilicity (logD) was 1.92. The fraction unbound at 5 h in series [1] (PPB) was 0.304; in series [2], 0.349; in series [3], 0.454.

Take `Cc1cc(Nc2cnc(C#N)c(N[C@@H](C)c3ncc(F)cn3)n2)n[nH]1`: the logD in series [4] (pH 7.4, LogD7.4) stood at 1.96. Also, the fraction unbound at 5 h in series [1] (PPB) was 0.186; in series [2], 0.376; in series [3], 0.398.

In the case of `Cc1cc(Nc2cnc(C#N)c(N[C@@H](C)c3ccc(F)cn3)n2)n[nH]1`, the logD in series [4] (pH 7.4, LogD7.4) is 2.51. The free fraction (fraction unbound) at 5 h is 0.145 in series [1] (PPB), 0.16 in series [2] and 0.204 in series [3].

`Cc1cc(Nc2nc(N[C@@H](C)c3ccc(F)cn3)c(C#N)nc2C)n[nH]1`: the fraction unbound at 5 h in series [1] (PPB) is 0.173; in series [2], 0.19; in series [3], 0.262.

`COC[C@H](O)Cn1c(=O)cnn(-c2ccc(Cl)c(C(=O)NCC3(O)CCCCCC3)c2)c1=O` [CE-224535]: the pH-dependent lipophilicity (logD) in series [4] (pH 7.4, LogD7.4) is 1.46. The fraction unbound at 5 h in series [1] (PPB) was 0.415; in series [2] it was 0.477; in series [3], 0.552.

Compound `O=c1[nH]c2ccccc2n1CCCN1CCC(n2c(=O)[nH]c3cc(Cl)ccc32)CC1` [DOMPERIDONE] returned a logD in series [4] (pH 7.4) of 3.45. Also, the free fraction (fraction unbound) at 5 h in series [1] is 0.0335; in series [2] it was 0.069; in series [3], 0.0872.

As to `COc1cc2c(cc1OC)C(=O)C(CC1CCN(Cc3ccccc3)CC1)C2` (stereo not given) [DONEPEZIL], the free fraction (fraction unbound) at 5 h in series [1] (PPB) is 0.105; in series [2] it was 0.339; in series [3], 0.613.

As to `O=C(Cn1c(Cl)cnc(NCC(F)(F)c2ccccn2)c1=O)NCc1ncccc1F` [DPOC-4088], the figures for the fraction unbound at 5 h in series [1] (PPB), in series [2] and in series [3] were 0.28, 0.208 and 0.392, respectively.

As for `CCCn1c(=O)[nH]c(=O)c2[nH]cnc21` [ENPROFYLLINE], the free fraction (fraction unbound) at 5 h is 0.329 in series [1] (PPB), 0.212 in series [2] and 0.392 in series [3].

As for `CN(C)CCCN1c2ccccc2CCc2ccccc21` [IMIPRAMINE], the fraction unbound at 5 h in series [1] was 0.121; in series [2], 0.173; in series [3] it was 0.0437.

In the case of `C[C@@H]1C[C@H]2[C@@H]3CCC4=CC(=O)C=C[C@]4(C)[C@@]3(Cl)[C@@H](O)C[C@]2(C)[C@@]1(OC(=O)c1ccco1)C(=O)CCl` [MOMETASONE FUROATE], the unbound share (fraction unbound) at 5 h is 0.0023 in series [1] (PPB), 0.001 in series [2] and 0.003 in series [3].

Regarding `CC[C@@H](Nc1c(Nc2cccc(C(=O)N(C)C)c2O)c(=O)c1=O)c1ccc(C)o1` [NAVARIXIN ANHYDROUS], in series [4] (pH 7.4, LogD7.4), the logD amounted to 2.32. Further, the results for the fraction unbound at 5 h in series [1] (PPB), in series [2] and in series [3] were 0.0179, 0.0106 and 0.089, respectively.

As for `COC(=O)C1=C(C)NC(C)=C(C(=O)OC)C1c1ccccc1[N+](=O)[O-]` [NIFEDIPINE], the fraction unbound at 5 h was 0.0383 in series [1], 0.0023 in series [2] and 0.0736 in series [3].

`O=C(O)CCn1c2c(c3ccccc31)C[C@H](NS(=O)(=O)c1ccc(F)cc1)CC2` [RAMATROBAN]: the fraction unbound at 5 h was 0.0274 in series [1] (PPB), 0.0328 in series [2] and 0.0437 in series [3].

For `N#CC[C@H](C1CCCC1)n1cc(-c2ncnc3[nH]ccc23)cn1` [RUXOLITINIB], the log distribution coefficient (logD) in series [4] (pH 7.4, LogD7.4) turned out to be 2.55. The results for the unbound share (fraction unbound) at 5 h in series [1] (PPB), in series [2] and in series [3] were 0.0532, 0.173 and 0.166, respectively.
